The values that follow come from patent US10251874B2, “Crystalline forms of a JAK inhibitor compound” (THERAVANCE BIOPHARMA R&D IP, LLC, priority 2017, dated 2019).

In one test the target is T1, JAK2 (Homo sapiens, UniProt O60674).
T1 construct: GST; purchased Life Technologies
Briefly: Assay 1: LanthaScreen biochemical JAK kinase assay, JAK2. The following applies: converted from pIC50 by Cheng-Prusoff; ATP at Km 3 μM; read-out: JAK 2 pKi (converted). How it is done: A panel of four LanthaScreen JAK biochemical assays (JAK1, 2, 3 and Tyk2) were carried in a common kinase reaction buffer (50 mM HEPES, pH 7.5, 0.01% Brij-35, 10 mM MgCl2, and 1 mM EGTA). Recombinant GST-tagged JAK enzymes and a GFP-tagged STAT1 peptide substrate were obtained from Life Technologies.
The serially diluted compound was pre-incubated with each of the four JAK enzymes and the substrate in white 384-well microplates (Corning) at ambient temperature for lh. ATP was subsequently added to initiate the kinase reactions in 10 μL total volume, with 1% DMSO. […] The plates were allowed to incubate at ambient temperature for lh before being read on the EnVision reader (Perkin Elmer). Emission ratio signals (520 nm/495 nm) were recorded and utilized to calculate the percent inhibition values based on DMSO and background controls.
For dose-response analysis, percent inhibition data were plotted vs. compound concentrations, and IC50 values were determined from a 4-parameter robust fit model with the Prism software (GraphPad Software). Results were expressed as pIC50 (negative logarithm of IC50) and subsequently converted to pK1 (negative logarithm of dissociation constant, Ki) using the Cheng-Prusoff equation.
For orientation: TR-FRET usually uses a lanthanide donor and a delayed reading to cut background.

Test [1] concerns IL-13 induced STAT6 phosphorylation in BEAS-2B human lung epithelial cells. Put plainly: Assay 2: Cellular JAK potency assay: inhibition of IL-13 (AlphaScreen). The following applies: BEAS-2B cells, read-out: pIC50, inhibition of IL-13 induced STAT6 phosphorylation (converted). It is filed as cell-based. As to the method: The AlphaScreen JAM cellular potency assay was carried out by measuring interleukin-13 (IL-13, R&D Systems) induced STAT6 phosphorylation in BEAS-2B human lung epithelial cells (ATCC). The anti-STAT6 antibody (Cell Signaling Technologies) was conjugated to AlphaScreen acceptor beads (Perkin Elmer), while the anti-pSTAT6 (pTyr641) antibody (Cell Signaling Technologies) was biotinylated using EZ-Link Sulfo-NHS-Biotin (Thermo Scientific).
BEAS-2B cells were grown at 37° C. in a 5% CO2 humidified incubator in 50% DMEM/50% F-12 medium (Life Technologies) supplemented with 10% FBS (Hyclone), 100 U/mL penicillin, 100 μg/mL streptomycin (Life Technologies), and 2 mM
GlutaMAX (Life Technologies). On day 1 of the assay, cells were seeded at a 7,500 cells/well density in white poly-D-lysine-coated 384-well plates (Corning) with 25 μL medium, and were allowed to adhere overnight in the incubator. […] After a minimum of 2 h incubation, the assay plates were read on the EnVision plate reader. AlphaScreen luminescence signals were recorded and utilized to calculate the percent inhibition values based on DMSO and background controls.
For dose-response analysis, percent inhibition data were plotted vs. compound concentrations, and IC50 values were determined from a 4-parameter robust fit model with the Prism software. Results may also be expressed as the negative logarithm of the IC50 value, pIC50.
(Bead proximity is the source of the signal in Alpha formats.)

For test [2], the system named is IFNγ induced CXCL10 secretion in EpiAirway tissue cultures. Briefly: Assay 15: IFNγ induced CXCL10 in human 3D airway cultures. It is filed as cell-based. The settings on record: 192 h, Day 8, average from 3 or 4 donors, read-out: % inhibition of IFNγ induced CXCL10 secretion (±STDV). How it is done: EpiAirway tissue cultures were obtained from Mattek (AIR-100). Cultures were derived from asthmatic donors. In a cell culture insert, human derived tracheal/bronchial epithelial cells were grown and differentiated on a porous membrane support, allowing an air-liquid interface with warmed culture medium below the cells and a gaseous test atmosphere above. Tissues were cultured in maintenance media (Mattek, AIR-100-MM) in a 37° C., 5% CO2 humidified incubator. Four donors were tested. On Day 0, tissue cultures were treated with test compounds at 10 μM, 1 μM and/or 0.1 μM. Compounds were diluted in dimethyl sulfoxide (DMSO, Sigma) to a final concentration of 0.1%. DMSO at 0.1% was used as a vehicle control. Test compounds were incubated with cultures for 1 hour at 37° C., 5% CO2, followed by the addition of pre-warmed media containing IFNγ (R&D Systems) or IL-27 (R&D Systems) at a final concentration at 100 ng/ml. Tissue cultures were maintained for 8 days. Media was replaced every 2 days with fresh media containing compounds and IFNγ or IL-27. On Day 8, tissue cultures and supernatants were collected for analysis. […] Data is expressed as % Inhibition +/−standard deviation (±STDV). Percent inhibition was determined by compound inhibitory potency against IFNγ or IL-27 induced CXCL10 or CXCL9 secretion compared to vehicle treated cells. […]

T1 sequence (O60674 whole entry): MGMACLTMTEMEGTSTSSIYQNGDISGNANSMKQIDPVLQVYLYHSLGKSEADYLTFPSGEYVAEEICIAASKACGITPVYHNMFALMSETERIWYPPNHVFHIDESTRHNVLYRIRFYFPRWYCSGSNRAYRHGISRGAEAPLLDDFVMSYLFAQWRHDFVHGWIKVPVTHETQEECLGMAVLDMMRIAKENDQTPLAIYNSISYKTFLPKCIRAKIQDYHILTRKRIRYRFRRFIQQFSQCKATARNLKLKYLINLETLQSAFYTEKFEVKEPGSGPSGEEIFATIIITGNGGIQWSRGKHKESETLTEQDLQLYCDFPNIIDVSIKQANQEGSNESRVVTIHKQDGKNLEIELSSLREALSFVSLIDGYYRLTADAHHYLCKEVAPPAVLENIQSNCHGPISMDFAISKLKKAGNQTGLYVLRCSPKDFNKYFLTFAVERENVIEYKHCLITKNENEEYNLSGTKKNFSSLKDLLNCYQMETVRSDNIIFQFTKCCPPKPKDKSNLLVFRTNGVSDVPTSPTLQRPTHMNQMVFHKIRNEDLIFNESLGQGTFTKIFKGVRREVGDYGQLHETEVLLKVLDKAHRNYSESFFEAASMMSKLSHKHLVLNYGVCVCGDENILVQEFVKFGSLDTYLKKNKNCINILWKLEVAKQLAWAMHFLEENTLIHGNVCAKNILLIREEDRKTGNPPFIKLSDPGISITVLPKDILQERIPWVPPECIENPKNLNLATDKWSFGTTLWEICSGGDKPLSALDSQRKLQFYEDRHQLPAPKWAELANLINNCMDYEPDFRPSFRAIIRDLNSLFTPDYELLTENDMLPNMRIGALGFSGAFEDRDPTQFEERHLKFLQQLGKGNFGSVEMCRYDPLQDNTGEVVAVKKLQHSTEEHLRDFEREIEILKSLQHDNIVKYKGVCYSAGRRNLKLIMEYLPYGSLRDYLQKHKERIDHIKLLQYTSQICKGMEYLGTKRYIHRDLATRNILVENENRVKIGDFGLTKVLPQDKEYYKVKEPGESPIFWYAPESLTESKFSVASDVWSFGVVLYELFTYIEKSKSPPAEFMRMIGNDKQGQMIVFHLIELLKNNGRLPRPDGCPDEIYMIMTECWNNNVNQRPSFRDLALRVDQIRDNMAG

With `CCc1cc(O)c(F)cc1-c1ccc2c(-c3nc4c([nH]3)CCN(C3CCN(C)CC3)C4)n[nH]c2c1` [Compound 1, 5-ethyl-2-fluoro-4-(3-(5-(1-methylpiperidin-4-yl)-4,5,6,7-tetrahydro-1H-imidazo[4,5-c]pyridin-2-yl)-1H-indazol-6-yl)phenol], on JAK2, the Ki is 0.0158 nM. Moreover, the IC50 in test [1] is 6.31 nM. Besides, the inhibition (usually how much of the control response was suppressed) at 0.1 µM in test [2] (at 0.1 μM) worked out at 17%. For the same compound, the inhibition at 10 µM in test [2] (at 10 μM) was 99%.
